Molecular target: T1, Syk (Homo sapiens, UniProt P43405)
T1 construct: purchased Carna Biosciences
Assay: Syk HTRF assay
Format: biochemical
Conditions: IC50 activity level, read-out: Activity Level
How it was run: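 HTRF kinase assay in HEPES pH 7.6 buffer with MgCl2, DTT and Triton X100; start mix of 87.5 μM ATP and 80 nM biotinylated peptide, 1 h at room temperature. EDTA stop, then Eu-anti-phosphotyrosine/streptavidin-DyLight 647 detection, read as 665/615 nm emission ratio.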

Row | Compound | IC50 [nM]
1 | C[C@@H](CN)Cc1cccc2nc(Nc3ccccc3)nn12 [Example 458, (R)-5-(3-amino-2-methylpropyl)-N-phenyl-[1,2,4]triazolo[1,5-a]pyridin-2-amine] | 1000 to 10000
2 | NC(=O)[C@H]1CC[C@H](Oc2cccc3nc(Nc4ccc(C(F)(F)F)cc4)nn23)CC1 (stereo in doubt) [Example 405, trans-4-(2-(4-(trifluoromethyl)phenylamino)-[1,2,4]triazolo[1,5-a]pyridin-5-yloxy)cyclohexanecarboxamide] | 1000 to 10000
3 | Cn1c(=O)[nH]c2cc(Nc3nc4cccc(N[C@H]5CC[C@@H](O)CC5)n4n3)ccc21 [Example 570, cis-5-(5-(4-hydroxycyclohexylamino)-[1,2,4]triazolo[1,5-a]pyridin-2-ylamino)-1-methyl-1H-benzo[d]imidazol-2(3H)-one] | 0.005 to 250
4 | c1cc(N[C@@H]2CCCNC2)n2nc(Nc3ccc4nn[nH]c4c3)nc2c1 [Example 455, (R)-N^2-(1H-benzo[d][1,2,3]triazol-6-yl)-N^5-(piperidin-3-yl)-[1,2,4]triazolo[1,5-a]pyridine-2,5-diamine] | 250 to 500
5 | N[C@H]1CC[C@H](Nc2cccc3nc(Nc4ccccc4)nn23)CC1 (stereo in doubt) [Example 518, trans-N^5-(4-aminocyclohexyl)-N^2-phenyl-[1,2,4]triazolo[1,5-a]pyridine-2,5-diamine] | 500 to 1000

Same assay, conditions: activity levels A-D, read-out: Activity Level (IC50 in the Syk HTRF assay)

Row | Compound | IC50 [nM]
6 | O[C@H]1CC[C@@H](Nc2cccc3nc(Nc4cccc(Cl)c4)nn23)CC1 [Example 354, cis-4-(2-(3-chlorophenylamino)-[1,2,4]triazolo[1,5-a]pyridin-5-ylamino)cyclohexanol] | 0.005 to 250
7 | OC1CCC(Cc2cccc3nc(Nc4ccc(C(F)(F)F)cc4)nn23)CC1 (stereo in doubt) [Example 398, trans-4-((2-(4-(trifluoromethyl)phenylamino)-[1,2,4]triazolo[1,5-a]pyridin-5-yl)methyl)cyclohexanol] | 0.005 to 250
8 | O[C@H]1CC[C@@H](Nc2cccc3nc(Nc4ccnc(NCCN5CCCC5)c4)nn23)CC1 [Example 278, cis-4-(2-(2-(2-(pyrrolidin-1-yl)ethylamino)pyridin-4-ylamino)-[1,2,4]triazolo[1,5-a]pyridin-5-ylamino)cyclohexanol] | 0.005 to 250
9 | Cc1cc(Nc2nc3cccc(N[C@H]4CC[C@@H](O)CC4)n3n2)cc(C)n1 [Example 261, cis-4-(2-(2,6-dimethylpyridin-4-ylamino)-[1,2,4]triazolo[1,5-a]pyridin-5-ylamino)cyclohexanol] | 500 to 1000
10 | OC[C@@H]1CCN(c2cccc3nc(Nc4ccc(C(F)(F)F)cc4)nn23)C1 [Example 326, (R)-(1-(2-(4-(trifluoromethyl)phenylamino)-[1,2,4]triazolo[1,5-a]pyridin-5-yl)pyrrolidin-3-yl)methanol] | 250 to 500
11 | COc1ccccc1Nc1nc2cccc(N[C@H]3CC[C@@H](O)CC3)n2n1 [Example 339, cis-4-(2-(2-methoxyphenylamino)-[1,2,4]triazolo[1,5-a]pyridin-5-ylamino)cyclohexanol] | 1000 to 10000
12 | O=C1CN(Cc2cccc3nc(Nc4ccc(N5CCC(O)CC5)nc4)nn23)CCN1 [Example 221, 4-((2-(6-(4-hydroxypiperidin-1-yl)pyridin-3-ylamino)-[1,2,4]triazolo[1,5-a]pyridin-5-yl)methyl)piperazin-2-one] | 500 to 1000
13 | NC(=O)c1ccc(Nc2nc3cccc(N[C@H]4CC[C@@H](O)CC4)n3n2)cn1 [Example 370, cis-5-(5-(4-hydroxycyclohexylamino)-[1,2,4]triazolo[1,5-a]pyridin-2-ylamino)picolinamide] | 500 to 1000
14 | OC[C@]1(O)CC[C@@H](Nc2cccc3nc(Nc4ccc(C(F)(F)F)cc4)nn23)CC1 [Example 227, cis-1-(hydroxymethyl)-4-(2-(4-(trifluoromethyl)phenylamino)-[1,2,4]triazolo[1,5-a]pyridin-5-ylamino)cyclohexanol] | 0.005 to 250

Same assay, conditions: read-out: Activity Level (Syk HTRF assay IC50)

Row | Compound | IC50 [nM]
15 | CNC(=O)c1ccc(Nc2nc3cccc(-c4cccc(CCN)c4)n3n2)cc1 [compound 11, 4-(5-(3-(2-aminoethyl)phenyl)-[1,2,4]triazolo[1,5-a]pyridin-2-ylamino)-N-methylbenzamide] | 250 to 500
16 | CN1C(=O)C(C)(C)c2ccc(Nc3nc4cccc(NC5CCOCC5)n4n3)cc21 [Example 151, 1,3,3-trimethyl-6-(5-(tetrahydro-2H-pyran-4-ylamino)-[1,2,4]triazolo[1,5-a]pyridin-2-ylamino)indolin-2-one] | 0.005 to 250
17 | Fc1ccccc1-c1cccc2nc(Nc3ccccc3)nn12 [compound 80, 5-(2-fluorophenyl)-N-phenyl-[1,2,4]triazolo[1,5-a]pyridin-2-amine] | 1000 to 10000
18 | CNC(=O)c1ccc(Nc2nc3cccc(-c4cccc(O)c4)n3n2)c(OC)c1 [compound 15, 4-(5-(3-hydroxyphenyl)-[1,2,4]triazolo[1,5-a]pyridin-2-ylamino)-3-methoxy-N-methylbenzamide] | 500 to 1000
19 | CN1CCC(NC(=O)c2ccc(Nc3nc4cccc(-c5cccc(O)c5)n4n3)cc2)CC1 [compound 34, 4-(5-(3-hydroxyphenyl)-[1,2,4]triazolo[1,5-a]pyridin-2-ylamino)-N-(1-methylpiperidin-4-yl)benzamide] | 0.005 to 250
20 | Cc1n[nH]c2ccc(Nc3nc4cccc(CC5CCOCC5)n4n3)cc12 [compound 116, N-(3-methyl-1H-indazol-5-yl)-5-((tetrahydro-2H-pyran-4-yl)methyl)-[1,2,4]triazolo[1,5-a]pyridin-2-amine] | 0.005 to 250
21 | COCc1n[nH]c2cc(Nc3nc4cccc(CC5CCOCC5)n4n3)ccc12 [compound 104, N-(3-(methoxymethyl)-1H-indazol-6-yl)-5-((tetrahydro-2H-pyran-4-yl)methyl)-[1,2,4]triazolo[1,5-a]pyridin-2-amine] | 0.005 to 250
22 | Cn1ncc2cc(Nc3nc4cccc(N[C@H]5CC[C@@H](O)CC5)n4n3)cnc21 [Example 139, cis-4-(2-(1-methyl-1H-pyrazolo[3,4-b]pyridin-5-ylamino)-[1,2,4]triazolo[1,5-a]pyridin-5-ylamino)cyclohexanol] | 0.005 to 250
23 | Cc1n[nH]c2cc(Nc3nc4cccc(O[C@@H]5COC[C@@H]5O)n4n3)ccc12 (racemic) [Example 165, (±)-cis-4-(2-(3-methyl-1H-indazol-6-ylamino)-[1,2,4]triazolo[1,5-a]pyridin-5-yloxy)tetrahydrofuran-3-ol] | 250 to 500
24 | c1ccc(-c2cccc3nc(Nc4ccc5ncccc5c4)nn23)cc1 [compound 59, N-(5-phenyl-[1,2,4]triazolo[1,5-a]pyridin-2-yl)quinolin-6-amine] | 0.005 to 250
25 | COCCN1Cc2cc(Nc3nc4cccc(N[C@H]5CC[C@@H](O)CC5)n4n3)ccc2C1=O [Example 174, cis-5-(5-(4-hydroxycyclohexylamino)-[1,2,4]triazolo[1,5-a]pyridin-2-ylamino)-2-(2-methoxyethyl)isoindolin-1-one] | 0.005 to 250
26 | Cc1nn(CCO)c2cc(Nc3nc4cccc(N[C@H]5CC[C@@H](O)CC5)n4n3)ccc12 [Example 191, cis-4-(2-(1-(2-hydroxyethyl)-3-methyl-1H-indazol-6-ylamino)-[1,2,4]triazolo[1,5-a]pyridin-5-ylamino)cyclohexanol] | 0.005 to 250
27 | Oc1ccc(Nc2nc3cccc(-c4ccccc4)n3n2)cn1 [compound 70, 5-(5-phenyl-[1,2,4]triazolo[1,5-a]pyridin-2-ylamino)pyridine-2-ol] | 1000 to 10000
